Eleven compounds from patent US10689378B2, “Triazolopyridine compounds and uses thereof” (Novartis AG, priority 2016, dated 2020) can be followed below.

Structures are written as SMILES.

Assay [1] concerns the target wild type PRC2 (wtPRC2) complex (Homo sapiens, UniProt O75530). Nature of the assay: EED LC-MS assay (SAH production by PRC2). It counts as biochemical. The settings on record: PRC2 LC-MS assay; read-out: (b) IC50 EED LC-MS Qualified. In outline: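 Pentameric PRC2 (EZH2, SUZ12, EED, Rbap48, AEBP), 12 nM final, preincubated 20 min with compound and SAM, then 1.5 μM biotinylated H3K27me0 peptide, 1 μM SAM, pH 8.0, 120 min at rt. SAH quantified by LC-MS/MS with d4-SAH; control-normalized activity fitted for IC50.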

Assay [2] deals with H3K27 methylation in G401 cell. Nature of the assay: ELISA (H3K27 methylation) assay in G401 cells. It counts as cell-based, human. The settings on record: Homo sapiens, G-401, H3K27 methylation ELISA, read-out: (c) IC50 ELISA Qualified. In outline: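 G401 cells treated 48 h with 3-fold dilutions (8 or 12 points, top 20 μM). Acid-extracted histones probed by ELISA for H3K27me3 or H3K27me2 with ECL readout, normalized to total H3. Percent inhibition versus DMSO fitted to dose-response curve for IC50.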

The next assay concerns the target T1, EED (1-441)-His protein (Homo sapiens, UniProt O75530).
T1 construct: 30 nM EED (1-441)-His protein
Nature of the assay: EED-H3K27Me3 peptide competition binding assay by AlphaScreen. To be noted: EED-H3K27Me3 peptide competition, AlphaScreen; read-out: (a) IC50 EED Alphascreen binding Qualified. The method in brief: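 Serially diluted compound (12 points, 3-fold) incubated 20 min with 30 nM EED(1-441)-His and 15 nM biotin-H3K27Me3(19-33) peptide in 25 mM HEPES pH 8, 0.02% Tween-20, 0.5% BSA. Ni-chelate acceptor/streptavidin donor beads (10 μg/mL each) added, 1 h rt dark; 615 nm emission normalized to controls, dose-response fit for IC50.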

wild type PRC2 (wtPRC2) complex, sequence (O75530 whole entry): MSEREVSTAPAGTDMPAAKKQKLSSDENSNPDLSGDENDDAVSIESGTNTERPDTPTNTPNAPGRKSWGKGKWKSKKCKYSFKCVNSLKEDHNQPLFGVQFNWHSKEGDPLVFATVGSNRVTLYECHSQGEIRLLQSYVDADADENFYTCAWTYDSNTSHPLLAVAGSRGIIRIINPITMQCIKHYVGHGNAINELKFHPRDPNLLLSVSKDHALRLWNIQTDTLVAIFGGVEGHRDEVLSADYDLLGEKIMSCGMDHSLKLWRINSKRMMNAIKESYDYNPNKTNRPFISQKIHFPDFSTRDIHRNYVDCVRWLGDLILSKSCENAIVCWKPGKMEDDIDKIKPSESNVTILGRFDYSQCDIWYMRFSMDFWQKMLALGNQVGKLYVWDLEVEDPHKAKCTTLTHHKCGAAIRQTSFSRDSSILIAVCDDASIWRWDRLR
wild type PRC2 (wtPRC2) complex, sequence (Q15910 whole entry partner): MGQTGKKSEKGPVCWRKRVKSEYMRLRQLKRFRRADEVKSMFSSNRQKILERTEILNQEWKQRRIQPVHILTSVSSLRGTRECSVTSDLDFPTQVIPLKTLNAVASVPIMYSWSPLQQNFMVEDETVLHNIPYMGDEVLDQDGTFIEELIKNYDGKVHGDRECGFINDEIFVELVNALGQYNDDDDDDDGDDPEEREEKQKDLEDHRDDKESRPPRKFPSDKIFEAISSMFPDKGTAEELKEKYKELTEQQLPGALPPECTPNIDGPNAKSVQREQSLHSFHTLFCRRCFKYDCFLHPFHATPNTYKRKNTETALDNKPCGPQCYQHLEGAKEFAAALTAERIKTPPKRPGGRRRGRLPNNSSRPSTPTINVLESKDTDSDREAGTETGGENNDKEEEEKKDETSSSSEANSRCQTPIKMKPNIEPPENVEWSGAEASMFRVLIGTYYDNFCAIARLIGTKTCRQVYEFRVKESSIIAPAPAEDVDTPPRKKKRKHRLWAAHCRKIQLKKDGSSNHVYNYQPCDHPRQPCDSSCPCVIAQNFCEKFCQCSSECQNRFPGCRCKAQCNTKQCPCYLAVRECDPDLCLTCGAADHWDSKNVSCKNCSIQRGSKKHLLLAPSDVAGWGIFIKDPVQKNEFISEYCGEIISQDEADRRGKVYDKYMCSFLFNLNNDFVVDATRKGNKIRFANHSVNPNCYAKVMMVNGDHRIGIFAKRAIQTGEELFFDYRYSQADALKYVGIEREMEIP
wild type PRC2 (wtPRC2) complex, sequence (Q15022 whole entry partner): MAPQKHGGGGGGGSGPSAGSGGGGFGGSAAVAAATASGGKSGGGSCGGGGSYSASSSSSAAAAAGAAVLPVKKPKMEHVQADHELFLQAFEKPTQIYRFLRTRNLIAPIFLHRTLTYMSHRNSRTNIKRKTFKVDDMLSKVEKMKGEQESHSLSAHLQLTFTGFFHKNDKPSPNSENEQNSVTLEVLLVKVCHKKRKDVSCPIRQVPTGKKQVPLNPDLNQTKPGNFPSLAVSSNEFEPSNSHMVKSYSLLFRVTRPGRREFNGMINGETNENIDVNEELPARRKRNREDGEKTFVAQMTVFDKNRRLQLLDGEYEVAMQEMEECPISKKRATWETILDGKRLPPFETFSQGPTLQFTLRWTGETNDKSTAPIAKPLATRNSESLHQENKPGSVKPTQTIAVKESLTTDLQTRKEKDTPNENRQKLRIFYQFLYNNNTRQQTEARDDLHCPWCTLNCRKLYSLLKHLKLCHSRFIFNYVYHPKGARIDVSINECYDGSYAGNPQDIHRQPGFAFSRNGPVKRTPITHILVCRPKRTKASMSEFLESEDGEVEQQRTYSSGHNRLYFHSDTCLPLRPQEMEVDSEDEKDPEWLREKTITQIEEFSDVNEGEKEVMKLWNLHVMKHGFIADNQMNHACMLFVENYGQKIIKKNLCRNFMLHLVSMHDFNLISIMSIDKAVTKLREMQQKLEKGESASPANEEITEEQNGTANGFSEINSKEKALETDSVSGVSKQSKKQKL
wild type PRC2 (wtPRC2) complex, sequence (Q09028 whole entry partner): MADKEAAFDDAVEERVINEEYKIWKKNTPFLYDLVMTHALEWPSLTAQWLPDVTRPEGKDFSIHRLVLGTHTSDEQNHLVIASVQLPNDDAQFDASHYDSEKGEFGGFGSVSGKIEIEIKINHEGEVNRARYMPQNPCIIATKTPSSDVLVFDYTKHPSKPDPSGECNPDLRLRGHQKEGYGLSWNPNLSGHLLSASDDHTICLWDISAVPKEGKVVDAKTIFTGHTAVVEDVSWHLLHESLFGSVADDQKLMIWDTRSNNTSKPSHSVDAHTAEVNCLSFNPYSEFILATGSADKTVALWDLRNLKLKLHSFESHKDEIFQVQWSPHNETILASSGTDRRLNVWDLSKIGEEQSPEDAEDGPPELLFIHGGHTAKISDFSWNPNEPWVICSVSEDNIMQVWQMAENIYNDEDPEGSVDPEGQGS
wild type PRC2 (wtPRC2) complex, sequence (Q6ZN18 whole entry partner): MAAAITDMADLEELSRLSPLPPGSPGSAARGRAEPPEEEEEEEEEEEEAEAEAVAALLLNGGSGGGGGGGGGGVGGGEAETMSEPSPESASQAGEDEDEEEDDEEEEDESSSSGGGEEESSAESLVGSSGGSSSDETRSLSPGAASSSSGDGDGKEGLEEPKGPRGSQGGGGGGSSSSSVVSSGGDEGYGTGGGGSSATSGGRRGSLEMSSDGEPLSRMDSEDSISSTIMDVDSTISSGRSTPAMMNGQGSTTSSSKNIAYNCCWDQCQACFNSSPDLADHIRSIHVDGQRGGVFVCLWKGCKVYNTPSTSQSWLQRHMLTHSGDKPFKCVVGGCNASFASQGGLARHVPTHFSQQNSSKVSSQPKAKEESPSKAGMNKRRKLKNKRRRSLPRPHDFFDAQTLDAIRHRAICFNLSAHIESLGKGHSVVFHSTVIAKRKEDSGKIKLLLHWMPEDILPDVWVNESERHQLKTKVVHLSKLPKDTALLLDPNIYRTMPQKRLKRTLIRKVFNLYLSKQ
T1 sequence (O75530 whole entry): as the sequence (O75530 whole entry) above

`COc1cccc(F)c1CNc1ccc(-c2ccc(S(C)(=O)=O)nc2C(F)F)c2nncn12` [Example 293, 8-(2-(difluoromethyl)-6-(methylsulfonyl)pyridin-3-yl)-N-(2-fluoro-6-methoxybenzyl)-[1,2,4] triazolo[4,3-a]pyridin-5-amine]: the values for the IC50 (in assay [1]; in assay [2]; at EED (1-441)-His protein) were 20.1 nM, 10.6 nM and 31.4 nM, respectively.

As for `COc1cccc(F)c1CNc1ccc(-c2cccnc2CF)c2nncn12` [Example 294, N-(2-fluoro-6-methoxybenzyl)-8-(2-(fluoromethyl)pyridin-3-yl)-[1,2,4] triazolo[4,3-a]pyridin-5-amine], the IC50 came out at 116 nM in assay [1], 9.4 nM in assay [2] and 23.9 nM on EED (1-441)-His protein.

With `COc1cc(F)cc(F)c1CNc1ccc(-c2ccc(C(=O)N(C)C)cc2C)c2nncn12` [Example 295, 4-(5-((2,4-difluoro-6-methoxybenzyl)amino)-[1,2,4]triazolo[4,3-a]pyridin-8-yl)-N,N,3-trimethyl benzamide], the IC50 is 321 nM in assay [1], 12.4 nM in assay [2] and 30.7 nM on EED (1-441)-His protein.

With `COc1cc(F)cc(F)c1CNc1ccc(-c2ccnn2C)c2nncn12` [Example 296, N-(2,4-difluoro-6-methoxybenzyl)-8-(1-methyl-1H-pyrazol-5-yl)-[1,2,4] triazolo[4,3-a]pyridin-5-amine], the results for the IC50 (in assay [1]; in assay [2]; at EED (1-441)-His protein) were 126 nM, 5.1 nM and 13 nM, respectively.

With `COc1cc(F)cc(F)c1CNc1ccc(-c2ccncc2C)c2nncn12` [Example 297, N-(2,4-difluoro-6-methoxybenzyl)-8-(3-methylpyridin-4-yl)-[1,2,4]triazolo[4,3-a] pyridin-5-amine], the values for the half-maximal inhibitory concentration (IC50) (in assay [1]; in assay [2]; on EED (1-441)-His protein) were 618 nM, 17.5 nM and 42.3 nM, respectively.

Take `CCc1ncccc1-c1ccc(NCc2c(F)cc(F)cc2OC)n2cnnc12` [Example 298, N-(2,4-difluoro-6-methoxybenzyl)-8-(2-ethylpyridin-3-yl)-[1,2,4]triazolo[4,3-a] pyridin-5-amine]: the IC50 turned out to be 362 nM in assay [1], 86.9 nM in assay [2] and 67.9 nM at EED (1-441)-His protein.

In the case of `COc1cc(F)cc(F)c1CNc1ccc(-c2cncnc2C)c2nncn12` [Example 299, N-(2,4-difluoro-6-methoxybenzyl)-8-(4-methylpyrimidin-5-yl)-[1,2,4] triazolo[4,3-a]pyridin-5-amine], the concentration for half-maximal inhibition (IC50) was found to be 66.6 nM in assay [1], 11.9 nM in assay [2] and 27.6 nM at EED (1-441)-His protein.

Turning to `COc1cccc(F)c1CNc1ccc(-c2cnc(S(C)(=O)=O)cc2C(F)F)c2nncn12` [Example 301, 8-(4-(difluoromethyl)-6-(methylsulfonyl)pyridin-3-yl)-N-(2-fluoro-6-methoxybenzyl)-[1,2,4]triazolo[4,3-a] pyridin-5-amine], the half-inhibitory concentration (IC50) in assay [1] amounted to 93.4 nM; in assay [2] it was 6.4 nM; at EED (1-441)-His protein it was 23.7 nM.

As for `COc1cc(F)cc(F)c1CNc1ccc(-c2cccnc2C(F)F)c2nncn12` [Example 302, N-(2,4-difluoro-6-methoxybenzyl)-8-(2-(difluoromethyl)pyridin-3-yl)-[1,2,4]triazolo[4,3-a]pyridin-5-amine], the concentration for half-maximal inhibition (IC50) in assay [1] worked out at 39.3 nM; in assay [2], 9.8 nM; on EED (1-441)-His protein, 13.3 nM.

With `COc1cccc(F)c1CNc1ccc(-c2cccnc2CO)c2nncn12` [Example 303, (3-(5-((2-fluoro-6-methoxy benzyl)amino)-[1,2,4]triazolo[4,3-a]pyridin-8-yl)pyridin-2-yl)methanol], the IC50 was 20.4 nM in assay [1], 15.5 nM in assay [2] and 27.6 nM on EED (1-441)-His protein.

As to `COc1cccc(F)c1CNc1ccc(-c2cnc(OC(F)F)cc2C)c2nncn12` [Example 304, 8-(6-(difluoromethoxy)-4-methylpyridin-3-yl)-N-(2-fluoro-6-methoxybenzyl)-[1,2,4]triazolo[4,3-a]pyridin-5-amine], the IC50 in assay [1] is 48.3 nM; in assay [2] it was 18 nM; on EED (1-441)-His protein, 26.6 nM.

Broadly, the IC50 is the concentration needed to halve the response being measured.
